The values below come from ChEMBL document CHEMBL4152317, “Engineering potent mesotrypsin inhibitors based on the plant-derived cyclic peptide, sunflower trypsin inhibitor-1” (Eur J Med Chem, 2018).

Where a SMILES comes first, the peptide text is derived from it. Bridges are numbered along the chain shown (N, C = ends). [ ]: non-standard residue; d: D form. Bip = N[C@@H](Cc1ccc(-c2ccccc2)cc1)C(=O)O; 2Nal = N[C@@H](Cc1ccc2ccccc2c1)C(=O)O

One test has as its target T1, Trypsin-3 (Homo sapiens, UniProt P35030).
T1 sequence (P35030 whole entry): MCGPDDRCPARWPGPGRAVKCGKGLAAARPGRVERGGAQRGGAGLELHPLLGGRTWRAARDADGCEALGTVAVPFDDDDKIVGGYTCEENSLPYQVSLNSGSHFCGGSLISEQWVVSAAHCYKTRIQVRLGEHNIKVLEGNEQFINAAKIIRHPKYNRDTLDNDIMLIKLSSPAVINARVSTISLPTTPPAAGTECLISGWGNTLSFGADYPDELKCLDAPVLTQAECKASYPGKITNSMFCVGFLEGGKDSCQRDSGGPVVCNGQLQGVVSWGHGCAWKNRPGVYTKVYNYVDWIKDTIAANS
Put plainly: Competitive inhibition of recombinant human mesotrypsin using Z-GPR-MCA as substrate measured every 30 secs for 10 mins.

A further test concerns the target T2, Trypsin-3 (Homo sapiens) (UniProt P35030).
T2 sequence (whole entry): T1 sequence (P35030 whole entry)
As to the kind of experiment: Potency index, ratio of SFTI-1 Ki to test compound Ki for recombinant human mesotrypsin.

The target of test [1] is T3, Serine protease 1 (Homo sapiens, UniProt P07477). Put plainly: Inhibition of human cationic trypsin using Boc-VPR-MCA as substrate measured every 30 secs for 10 mins.
T3 sequence (P07477 whole entry): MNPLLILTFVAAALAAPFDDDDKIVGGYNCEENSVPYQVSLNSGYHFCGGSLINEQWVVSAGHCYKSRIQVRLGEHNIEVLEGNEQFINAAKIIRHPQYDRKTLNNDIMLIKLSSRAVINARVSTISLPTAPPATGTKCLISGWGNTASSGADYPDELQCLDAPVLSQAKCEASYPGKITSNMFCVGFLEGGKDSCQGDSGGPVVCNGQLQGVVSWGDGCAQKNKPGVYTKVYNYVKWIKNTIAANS
Test [2] concerns the target T3, Serine protease 1. As to the kind of experiment: Potency index, ratio of SFTI-1 Ki to test compound Ki for human cationic trypsin.
Test [3] concerns the target T4, Serine protease 1 (Bos taurus, UniProt P00760).
T4 sequence (P00760 whole entry): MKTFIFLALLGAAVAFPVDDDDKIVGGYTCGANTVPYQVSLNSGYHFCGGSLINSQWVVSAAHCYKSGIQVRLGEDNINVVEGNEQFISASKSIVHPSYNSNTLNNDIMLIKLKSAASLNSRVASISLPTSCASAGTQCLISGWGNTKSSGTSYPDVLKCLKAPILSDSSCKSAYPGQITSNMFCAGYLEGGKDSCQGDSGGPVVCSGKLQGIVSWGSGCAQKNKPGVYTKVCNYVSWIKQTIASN
Put plainly: Inhibition of bovine beta-trypsin using Boc-QAR-MCA as substrate measured every 30 secs for 10 mins.

Test [4] concerns the target T5, Serine protease 1 (Bos taurus) (UniProt P00760).
T5 sequence (whole entry): T4 sequence (P00760 whole entry)
Put plainly: Potency index, ratio of SFTI-1 Ki to test compound Ki for bovine beta-trypsin.

The target in test [5] is T6, Suppressor of tumorigenicity 14 protein (Homo sapiens) (UniProt Q9Y5Y6).
T6 sequence (whole entry): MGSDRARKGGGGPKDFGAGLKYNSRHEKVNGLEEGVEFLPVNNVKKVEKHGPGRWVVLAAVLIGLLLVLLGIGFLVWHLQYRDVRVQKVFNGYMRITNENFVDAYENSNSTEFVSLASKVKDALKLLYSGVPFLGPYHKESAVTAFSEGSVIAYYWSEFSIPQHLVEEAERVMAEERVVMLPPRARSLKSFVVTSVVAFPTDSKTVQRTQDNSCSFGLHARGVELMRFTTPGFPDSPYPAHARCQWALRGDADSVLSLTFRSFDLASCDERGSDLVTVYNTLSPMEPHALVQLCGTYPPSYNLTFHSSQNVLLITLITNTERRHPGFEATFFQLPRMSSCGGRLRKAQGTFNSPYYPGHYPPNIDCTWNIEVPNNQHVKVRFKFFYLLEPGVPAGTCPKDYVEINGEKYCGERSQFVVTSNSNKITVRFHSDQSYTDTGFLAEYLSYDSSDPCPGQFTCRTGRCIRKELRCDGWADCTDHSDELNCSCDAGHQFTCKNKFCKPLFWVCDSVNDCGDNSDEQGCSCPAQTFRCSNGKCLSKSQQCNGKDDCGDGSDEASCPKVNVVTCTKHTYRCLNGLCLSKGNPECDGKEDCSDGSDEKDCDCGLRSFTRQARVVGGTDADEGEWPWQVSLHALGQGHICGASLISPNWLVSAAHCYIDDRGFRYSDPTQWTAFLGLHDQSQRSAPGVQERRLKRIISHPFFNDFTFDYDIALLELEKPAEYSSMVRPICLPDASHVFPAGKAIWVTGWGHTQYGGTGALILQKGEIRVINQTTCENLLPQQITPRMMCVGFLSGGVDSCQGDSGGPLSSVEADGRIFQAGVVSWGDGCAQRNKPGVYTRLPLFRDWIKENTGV
As to the kind of experiment: Inhibition of recombinant human matriptase at 50 uM using Boc-QAR-MCA as substrate measured every 30 secs for 10 mins relative to control.

Test [6] has as its target T7, Prothrombin (Homo sapiens, UniProt P00734). Put plainly: Inhibition of human alpha thrombin at 50 uM using Boc-VPR-MCA as substrate measured every 30 secs for 10 mins relative to control.
Test [7] addresses Chymotrypsinogen A (Bos taurus) (UniProt P00766). Put plainly: Inhibition of bovine alpha-chymotrypsin at 50 uM using Suc-AAPF-MCA as substrate measured every 30 secs for 10 mins relative to control.
Test [8] has as its target T8, Suppressor of tumorigenicity 14 protein (Homo sapiens, UniProt Q9Y5Y6).
T8 sequence (Q9Y5Y6 whole entry): T6 sequence (whole entry)
As to the kind of experiment: Inhibition of recombinant human matriptase using Boc-QAR-MCA as substrate measured every 30 secs for 10 mins.

The target of test [9] is T7, Prothrombin. Put plainly: Inhibition of human alpha thrombin using Boc-VPR-MCA as substrate measured every 30 secs for 10 mins.
For another test, the target named is Chymotrypsinogen A (Bos taurus, UniProt P00766). As to the kind of experiment: Inhibition of bovine alpha-chymotrypsin using Suc-AAPF-MCA as substrate measured every 30 secs for 10 mins.

One may read the Ki as the equilibrium dissociation constant of an inhibitor or competing ligand from its target. With `CC[C@H](C)[C@@H]1NC(=O)[C@@H]2CCCN2C(=O)[C@@H]2CCCN2C(=O)[C@H](Cc2ccc(-c3ccccc3)cc2)NC(=O)[C@H](CO)NC(=O)[C@H](CCCNC(=N)N)NC(=O)[C@H]([C@@H](C)O)NC(=O)[C@@H]2CSSC[C@H](NC1=O)C(=O)N[C@@H](Cc1ccccc1)C(=O)N1CCC[C@H]1C(=O)N[C@@H](CC(=O)O)C(=O)NCC(=O)N[C@@H](CCCNC(=N)N)C(=O)N2` (cyclo([Bip]PPICFPDGRCTRS); disulfide 5-11), the values for the Ki at Trypsin-3, on Serine protease 1 [1] and at Serine protease 1 [3] were 28 nM, 1.9 nM and 0.17 nM, respectively. Also, the Ratio Ki is 177 at Trypsin-3 (Homo sapiens), 63 at Serine protease 1 [2] and 21 in test [4].

Consider `CC[C@H](C)[C@@H]1NC(=O)[C@@H]2CCCN2C(=O)[C@@H]2CCCN2C(=O)[C@H](CC(=O)O)NC(=O)[C@H](CO)NC(=O)[C@H](CCCCN)NC(=O)[C@H]([C@@H](C)O)NC(=O)[C@@H]2CSSC[C@H](NC1=O)C(=O)N[C@@H](Cc1ccccc1)C(=O)N1CCC[C@H]1C(=O)N[C@@H](CC(=O)O)C(=O)NCC(=O)N[C@@H](CCCNC(=N)N)C(=O)N2` (cyclo(CFPDGRCTKSDPPI); disulfide 1-7), for which the Ki at Trypsin-3 is 402 nM. Besides, at Trypsin-3 (Homo sapiens), the Ratio Ki stood at 12.

Take `CC[C@H](C)[C@@H]1NC(=O)[C@@H]2CCCN2C(=O)[C@@H]2CCCN2C(=O)[C@H](Cc2ccccc2)NC(=O)[C@H](CO)NC(=O)[C@H](CCCCN)NC(=O)[C@H]([C@@H](C)O)NC(=O)[C@@H]2CSSC[C@H](NC1=O)C(=O)N[C@@H](Cc1ccccc1)C(=O)N1CCC[C@H]1C(=O)N[C@@H](CC(=O)O)C(=O)NCC(=O)N[C@@H](CCCNC(=N)N)C(=O)N2` (cyclo(CFPDGRCTKSFPPI); disulfide 1-7): the Ki at Trypsin-3 was found to be 45 nM. The Ratio Ki at Trypsin-3 (Homo sapiens) was 110.

For the molecule `CC[C@H](C)[C@@H]1NC(=O)[C@@H]2CCCN2C(=O)[C@@H]2CCCN2C(=O)[C@H](CO)NC(=O)[C@H](CO)NC(=O)[C@H](CCCCN)NC(=O)[C@H]([C@@H](C)O)NC(=O)[C@@H]2CSSC[C@H](NC1=O)C(=O)N[C@@H](Cc1ccccc1)C(=O)N1CCC[C@H]1C(=O)N[C@@H](CC(=O)O)C(=O)NCC(=O)N[C@@H](CCCNC(=N)N)C(=O)N2` (cyclo(CFPDGRCTKSSPPI); disulfide 1-7), the Ki on Trypsin-3 was found to be 335 nM. The Ratio Ki on Trypsin-3 (Homo sapiens) was determined as 15.

In the case of `CC[C@H](C)[C@@H]1NC(=O)[C@@H]2CCCN2C(=O)[C@@H]2CCCN2C(=O)[C@H](Cc2ccc(-c3ccccc3)cc2)NC(=O)[C@H](CO)NC(=O)[C@H](CCCCN)NC(=O)[C@H]([C@@H](C)O)NC(=O)[C@@H]2CSSC[C@H](NC1=O)C(=O)N[C@@H](Cc1ccccc1)C(=O)N1CCC[C@H]1C(=O)N[C@@H](CC(=O)O)C(=O)NCC(=O)N[C@@H](CCCNC(=N)N)C(=O)N2` (cyclo([Bip]PPICFPDGRCTKS); disulfide 5-11), the Ki on Trypsin-3 was found to be 35 nM; on Serine protease 1 [1], 0.76 nM; at Serine protease 1 [3], 0.062 nM. Moreover, the Ratio Ki on Trypsin-3 (Homo sapiens) worked out at 142; on Serine protease 1 [2], 25; in test [4] it was 8.

On to `CC[C@H](C)[C@@H]1NC(=O)[C@@H]2CCCN2C(=O)[C@@H]2CCCN2C(=O)[C@H](Cc2ccc3ccccc3c2)NC(=O)[C@H](CO)NC(=O)[C@H](CCCNC(=N)N)NC(=O)[C@H]([C@@H](C)O)NC(=O)[C@@H]2CSSC[C@H](NC1=O)C(=O)N[C@@H](Cc1ccccc1)C(=O)N1CCC[C@H]1C(=O)N[C@@H](CC(=O)O)C(=O)NCC(=O)N[C@@H](CCCNC(=N)N)C(=O)N2` (cyclo([2Nal]PPICFPDGRCTRS); disulfide 5-11), for which the inhibitory constant (Ki) at Trypsin-3 is 38 nM; on Serine protease 1 [1], 2.6 nM; on Serine protease 1 [3], 0.23 nM. For the same molecule, the Ratio Ki at Trypsin-3 (Homo sapiens) amounted to 131; at Serine protease 1 [2], 87; in [4] it was 29.

One may read the inhibition as the share of the control response that was lost under treatment. By IC50 is commonly meant the midpoint of a concentration-inhibition curve. Regarding `CC[C@H](C)[C@@H]1NC(=O)[C@@H]2CCCN2C(=O)[C@@H]2CCCN2C(=O)CNC(=O)[C@H](CO)NC(=O)[C@H](CCCCN)NC(=O)[C@H]([C@@H](C)O)NC(=O)[C@@H]2CSSC[C@H](NC1=O)C(=O)N[C@@H](Cc1ccccc1)C(=O)N1CCC[C@H]1C(=O)N[C@@H](CC(=O)O)C(=O)NCC(=O)N[C@@H](CCCNC(=N)N)C(=O)N2` (cyclo(CFPDGRCTKSGPPI); disulfide 1-7), the Ki amounted to 134 nM on Trypsin-3, 49 nM at Serine protease 1 [1] and 81 nM on Serine protease 1 [3]. For the same molecule, the Ratio Ki is 37 at Trypsin-3 (Homo sapiens), 1630 on Serine protease 1 [2] and 10100 in [4]. Also, the inhibition (in [5]; on Prothrombin [6]; in [7]) was less than 50% in each case. Further, the IC50 (in test [8]; at Prothrombin [9]; against Chymotrypsinogen A) was more than 50000 nM throughout.

On to `CC[C@H](C)[C@@H]1NC(=O)[C@@H]2CCCN2C(=O)[C@@H]2CCCN2C(=O)CNC(=O)[C@H](CO)NC(=O)[C@H](CCCNC(=N)N)NC(=O)[C@H]([C@@H](C)O)NC(=O)[C@@H]2CSSC[C@H](NC1=O)C(=O)N[C@@H](Cc1ccccc1)C(=O)N1CCC[C@H]1C(=O)N[C@@H](CC(=O)O)C(=O)NCC(=O)N[C@@H](CCCNC(=N)N)C(=O)N2` (cyclo(CFPDGRCTRSGPPI); disulfide 1-7), for which the Ki at Trypsin-3 was found to be 369 nM; at Serine protease 1 [1], 100 nM; at Serine protease 1 [3] it was 196 nM. The Ratio Ki on Trypsin-3 (Homo sapiens) worked out at 13; at Serine protease 1 [2] it was 3330; in [4], 24500.

In the case of `CC[C@H](C)[C@@H]1NC(=O)[C@@H]2CCCN2C(=O)[C@@H]2CCCN2C(=O)[C@H](Cc2ccc3ccccc3c2)NC(=O)[C@H](CO)NC(=O)[C@H](CCCCN)NC(=O)[C@H]([C@@H](C)O)NC(=O)[C@@H]2CSSC[C@H](NC1=O)C(=O)N[C@@H](Cc1ccccc1)C(=O)N1CCC[C@H]1C(=O)N[C@@H](CC(=O)O)C(=O)NCC(=O)N[C@@H](CCCNC(=N)N)C(=O)N2` (cyclo([2Nal]PPICFPDGRCTKS); disulfide 5-11), the Ki on Trypsin-3 turned out to be 26 nM; at Serine protease 1 [1], 0.87 nM; on Serine protease 1 [3], 0.046 nM. The values for the Ratio Ki (at Trypsin-3 (Homo sapiens); on Serine protease 1 [2]; in [4]) were 191, 29 and 6, respectively.

`CC[C@H](C)[C@@H]1NC(=O)[C@@H]2CCCN2C(=O)[C@@H]2CCCN2C(=O)[C@H]([C@@H](C)CC)NC(=O)[C@H](CO)NC(=O)[C@H](CCCCN)NC(=O)[C@H]([C@@H](C)O)NC(=O)[C@@H]2CSSC[C@H](NC1=O)C(=O)N[C@@H](Cc1ccccc1)C(=O)N1CCC[C@H]1C(=O)N[C@@H](CC(=O)O)C(=O)NCC(=O)N[C@@H](CCCNC(=N)N)C(=O)N2`: the affinity at Serine protease 1 [1], expressed as Ki, was 0.03 nM.
